Results published in patent US11753445B2, “Therapeutic peptides” (COHBAR, INC., priority 2016, dated 2023).

Tests used:
[1] = Stability in mouse plasma, peptides 100 uM (Example 14); format: in vitro ADME; conditions: mouse plasma 37° C., peptide 100 uM; for remaining at 0.25 h, 100 uM / remaining at 0.5 h, 100 uM / remaining at 1 h, 100 uM / remaining at 2 h, 100 uM / remaining at 3 h, 100 uM: pooled mouse plasma; for remaining at 0.25 h, 100 uM: 15 min, read-out: % Remaining at Each Time Point: 15 min; for remaining at 0.5 h, 100 uM: 30 min, read-out: % Remaining at Each Time Point: 30 min; for remaining at 1 h, 100 uM: 60 min, read-out: % Remaining at Each Time Point: 60 min; for remaining at 2 h, 100 uM: 120 min, read-out: % Remaining at Each Time Point: 120 min; for remaining at 3 h, 100 uM: 180 min, read-out: % Remaining at Each Time Point: 180 min
Protocol: (§1) Peptides (100 uM) were incubated in pooled mouse plasma at 37° C. and samples were removed and immediately analyzed for the concentration of intact peptide by LC/MS/MS over the course of 3 hours. The percent of peptide remaining in plasma at each time point was calculated relative to the initial peak area (Table 12).

3T3-L1 Adipocytes [2] = test: Free fatty acid levels in cultured mouse 3T3-L1 adipocytes, isoproterenol stimulated (Example 2); format: cell-based; conditions: test peptides 25 μM; isoproterenol 1 nM
How it was run: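 3T3-L1 cells differentiated 12–17 days into adipocytes, then exposed to test peptides at 25 μM final for 18–20 h, then 1 h, then 3 h with isoproterenol (1 nM) at 37 °C. Free fatty acids in the medium measured colorimetrically at 540 nm, corrected for untreated background and expressed relative to isoproterenol-only cells.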

[3] = tested on: Diet Induced Obese (DIO) mice; test: Body weight, blood glucose and fat mass in Diet Induced Obese mice, 10 days (Example 6); format: in vivo, Male C57BL/6 mice; conditions: male DIO mice; 10 days twice daily intraperitoneal 15 mg/kg; N = 8; mean
Protocol: Animals were randomized to treatment groups based on blood glucose levels and body weight. The peptides of the invention were administered to two groups of male DIG mice once or twice daily by subcutaneous or intraperitoneal injection at a dose of 15 mg/kg/dose for 10 days (N=8 animals per treatment group). An additional group of male DIG mice (n=8) received vehicle (water or saline) alone. Body weight, blood glucose levels and food intake were monitored. Body mass distribution (fat vs lean) was determined by quantitative whole body NMR prior to dosing and at the end of dosing.

Human Primary Adipocytes = test: Free fatty acid levels in cultured human primary adipocytes, forskolin stimulated (Example 5); format: cell-based; conditions: test peptides 25 μM; forskolin 1 μM
Protocol: Human primary adipocytes were seeded at 5,000-100,000 cells per well on 96-well, 48-well, or 24-well plate in Pre-adipocyte Medium (Zen-Bio, Durham, N.C.) and grown to confluence at 37° C. in a humidified atmosphere of 5% CO2/95% air. Two days after confluence, cells were placed in Adipocyte Differentiation Medium (Zen-Bio, Durham, N.C.) and cultured for three additional days at 37° C. in a humidified atmosphere of 5% CO2/95% air. The culture media was then replaced with Adipocyte Maintenance Medium (Zen-Bio) and the cells were maintained for an additional 11-21 days at 37° C. in a humidified atmosphere of 5% CO2/95% air with partial medium replacement every other day. Following 14-24 days of differentiation, test peptides were added at a final concentration of 25 μM and incubated for 18-20 hours in Adipocyte Maintenance Medium at 37° C. in a humidified atmosphere of 5% CO2/95%. After 18-20 hours, the media was exchanged with fresh Adipocyte Maintenance Medium containing test peptides and incubated for 1 h at 37° C. in a humidified atmosphere of 5% CO2/95%. After 1 h media was exchanged with Assay Buffer (Zen-Bio) containing forskolin (1 μM) (added to all samples except untreated controls) and test peptides. Cells were incubated for a further 3 hours at 37° C. in a humidified atmosphere of 5% CO2/95%. Free fatty acid concentrations in the media were determined using a Free Fatty Acid Assay Kit (Zen-Bio) according to the manufacturer's instructions using a plate reader (540 nm). Absorbance values were corrected for untreated background and expressed relative to forskolin treated cells. Treatment with forskolin (1 μM) alone was used as the free fatty acid level stimulatory control. The relative standard deviation of the forskolin control was <20%. […] Free fatty acid levels for insulin (100 nM) treatment were <8% of the forskolin control value.

3T3-L1 Adipocytes [4] = test: Free fatty acid levels in cultured mouse 3T3-L1 adipocytes, forskolin stimulated (Example 3); format: cell-based; conditions: test peptides 25 μM; forskolin 1 μM
Protocol: Mouse 3T3-L1 cells were seeded at 1,000-20,000 cells per well on 96-well, 48-well, or 24-well plates in Pre-adipocyte Medium (Zen-Bio, Durham, N.C.) and grown to confluence at 37° C. in a humidified atmosphere of 5% CO2/95% air. Two days after confluence, cells were placed in Adipocyte Differentiation Medium (Zen-Bio, Durham, N.C.) and cultured for three additional days at 37° C. in a humidified atmosphere of 5% CO2/95% air. The culture media was then replaced with Adipocyte Maintenance Medium (Zen-Bio) and the cells were maintained for an additional 9-14 days at 37° C. in a humidified atmosphere of 5% CO2/95% air with partial medium replacement every other day. Following 12-17 days of differentiation, test peptides were added at a final concentration of 25 μM and incubated for 18-20 hours in Adipocyte Maintenance Medium at 37° C. in a humidified atmosphere of 5% CO2/95%. After 18-20 hours, the media was exchanged with fresh Adipocyte Maintenance Medium containing test peptides and incubated for 1 h at 37° C. in a humidified atmosphere of 5% CO2/95%. After 1 h media was exchanged with Assay Buffer (Zen-Bio) containing forskolin (1 μM) (added to all samples except untreated controls) and test peptides. Cells were incubated for a further 3 hours at 37° C. in a humidified atmosphere of 5% CO2/95%. Free fatty acid concentrations in the media were determined using a Free Fatty Acid Assay Kit (Zen-Bio) according to the manufacturer's instructions using a plate reader (540 nm). Absorbance values were corrected for untreated background and expressed relative to forskolin treated cells. Treatment with forskolin (1 μM) alone was used as the free fatty acid level stimulatory control. The relative standard deviation of the forskolin control was <10%. […] Free fatty acid levels for insulin (100 nM) treatment were <9% of the forskolin control value.

[5] = Stability in mouse plasma, peptides 10 uM (Example 15); format: in vitro ADME; conditions: mouse plasma 37° C., peptide 10 uM
Protocol: as §1, with “(10” for “(100”, “13).” for “12).”

% Remaining at Each Time Point: 0 min [1] [%]	remaining at 0.25 h, 100 uM [1] [%]	remaining at 0.5 h, 100 uM [1] [%]	remaining at 1 h, 100 uM [1] [%]	remaining at 2 h, 100 uM [1] [%]	remaining at 3 h, 100 uM [1] [%]	Substance	Free Fatty Acid Levels in 3T3-L1 Adipocytes Expressed as a Percent of Isoproterenol Control: Percent of Control Value (3T3-L1 Adipocytes [2]) [%]	Difference from Vehicle Control: Decrease from Baseline in Blood Glucose [3] [mg/dL]	Difference from Vehicle Control: Decrease from Baseline in Body Weight (%) [3] [%]	Difference from Vehicle Control: Decrease from Baseline in Fat Mass [3] [g]	Free Fatty Acid Levels in Human Primary Adipocytes Expressed as a Percent of Forskolin Control: Percent of Control Value (Human Primary Adipocytes) [%]	Free Fatty Acid Levels in 3T3-L1 Adipocytes Expressed as a Percent of Forskolin Control: Percent of Control Value (3T3-L1 Adipocytes [4]) [%]	further results
100	18.3	17.5	11.5	5.25	2.38	H-MRWQEAGYIFYPRKLR-OH [compound 11]	78.8	-27.6	−8.81	-5.85			
100	30.8	24	19.4	9.02	4.53	H-MRWQEMGYIFYPAKLR-OH [compound 18]		1.52	−0.80	-0.65	101		
100	18.8	18.2	8.52	1.82	0.22	H-MRWQEMGYIFYPRALR-OH [compound 19]	66.0	-14.5	−3.27	-2.34	113		
						H-MRWQEMGYIFYPRN-OH [compound 203]	52.9				75.2	54.5	
						H-MRWQEMGYIFYPRQ-OH [compound 204]	38.8				94.3	57.3	
						H-MRWQEMGYIFYPRQLR-OH [compound 214]	52.3				89.9	50.2	
						H-MRWQEMNYIFYPRALR-OH [compound 218]	41.0				75.4	43.6	
						H-RWQEMGYIFYPR-OH [compound 205]	71.5				94.5	64.5	
100	71.2	37.1	42.1	15.4	6.98	H-RWQEMGYIFYPRALR-OH [compound 215]	27.2	16.4	2.31	0.67	102	37.4	
						H-RWQEMGYIFYPRN-OH [compound 206]	53.8				100	50.6	
						H-RWQEMGYIFYPRNLR-OH [compound 216]	36.3				110	50.1	
						H-RWQEMGYIFYPRQ-OH [compound 207]	44.6				108	51.6	
						H-RWQEMNYIAEPR-OH [compound 251]	83.7	-34.3	−0.55	0.02			% Remaining at Each Time Point: 0 min ([5]; 0 min): 100%; remaining at 0.25 h, 10 uM ([5]; pooled mouse plasma, 15 min, read-out: % Remaining at Each Time Point: 15 min): 70.6%; remaining at 0.5 h, 10 uM ([5]; pooled mouse plasma, 30 min, read-out: % Remaining at Each Time Point: 30 min): 47.5%; remaining at 1 h, 10 uM ([5]; pooled mouse plasma, 60 min, read-out: % Remaining at Each Time Point: 60 min): 44.4%; remaining at 2 h, 10 uM ([5]; pooled mouse plasma, 120 min, read-out: % Remaining at Each Time Point: 120 min): 38.1%; remaining at 3 h, 10 uM ([5]; pooled mouse plasma, 180 min, read-out: % Remaining at Each Time Point: 180 min): 30.2%
